According to patent US12391679B2, “Benzamide-substituted bicyclic imidazo- and pyrazolo-fused -pyridine, -pyrimide, and -pyridazine compounds for treatment of inflammatory diseases” (ONCO3R Therapeutics BV, priority 2019, dated 2025):

Assays:
[1] = test system: LPS triggered IL-10 secretion in monocyte-derived macrophages; assay: MdM assay: LPS-triggered IL-10 (ELISA); type: cell-based; conditions: Macrophage; human MdM; LPS 200 ng/mL; supernatant after 2 h; maximal fold change vs LPS only, median of two or more assays; read-out: IL-10 FCmax median
Method: SIK inhibition inhibits TNFα and increases IL-10 release in LPS triggered monocyte-derived macrophages (MdM) and dendritic cells (MdDCs) (Clark et al. 2012; Sundberg et al. 2014; Ozanne et al. 2015). This assay evaluates illustrative compounds of the invention for their inhibition of LPS-induced TNFα and LPS triggered IL-10 secretion in monocyte-derived macrophages.
PBMCs are isolated from human blood samples (buffycoats). The buffy coat is aseptically transferred into a 50 mL Falcon tube, and diluted 1/2 in PBS. Falcon tubes are filled with 20 mL Lymphoprep™, on top of which 25 mL of the buffy coat is carefully added, tubes are centrifuged for 35 min at 400 g in temperature controlled centrifuge, without brake, at 25° C. PBMCs are aspirated from the white interface layer between sample and Lymphoprep™. PBMCs are washed five times in PBS. Cells are resuspended in RPMI 1640 complete medium supplemented with 10% FBS, 1% P/S, and cell density is determined using a hematologic analyzer (Sysmex XS-500i).
PBMCs are centrifuged at 300×g for 10 min and resuspended at a density of 1.0*10^7 cells/80 μL Miltenyi buffer (PBS, pH 7.4, 1% FBS, 2 mM EDTA).
Starting from this point of the protocol all steps are performed on ice. 20 μL of CD14+ micro-beads are added per 1.0*10^7 cells, the tube is mixed and incubated for 15 min in the fridge at 4° C. Cell suspension volume is adjusted to total volume of 100 mL using Miltenyi buffer, mixed gently and subsequently centrifuged for 10 min at 300×g. Supernatant is discarded and cell pellet is resuspended in 12 mL of Miltenyi buffer.
Four LS columns are placed in the MACS Separator (magnet) from Miltenyi Biotec, and are prewet by rinsing with 3 mL of MACS buffer per column. Three mL of cell suspension is added onto the column (max 1*10^8 of labelled cells/column), and columns are subsequently washed 3 times with 3 mL of Miltenyi buffer.
The columns are removed from the magnets, and 5 mL of Miltenyi buffer are added to the column to flush out the CD14+ fraction by pushing the plunger into the column. The flushed fractions are collected in a fresh 50 mL Falcon and volume is adjusted to 30 mL using Miltenyi buffer, cells are centrifuged for 10 min at 300×g. The obtained cell pellet is resuspended in 10 mL RPMI w/o FBS, and cell density is determined using a hematologic analyser (Sysmex XS-500i). 100 000 cells are seeded per well of a 96-well plate for differentiation to MdM in RPMI 1640 medium supplemented with 10% FBS, 1% P/S and 100 ng/mL rhM-CSF. On day 5 the medium is refreshed with 100 μL RPMI 1640 medium supplemented with 10% FBS, 1% P/S and 100 ng/mL rhM-CSF.
On day 10, MdMs are triggered and compound is added.
A compound dilution plate is made in 100% DMSO by 3-fold dilution of 10 mM stock solution. An intermediate dilution plate (10× final concentration) is made by diluting the compound dilution plate 50-fold in RPMI medium.
Medium is carefully removed from cell plates using multichannel pipette, and replaced by 80 μL fresh medium. 10 μL of the 10× final concentration compound is added to the cells and incubated for 1 hour at 37° C. before addition of trigger. No trigger conditions/trigger conditions are spiked with equal final DMSO concentrations of 0.2% DMSO. 10 μL of 10×LPS (final conc. 200 ng/mL) solution are added to all wells except for the ‘no trigger wells’ where 10 μL medium is added. Supernatant is collected after 2 h (IL-10 determination) and after 20 h (TNFα determination) of LPS triggering. […]

B10.RIII mice, IL-23 EEV = assay: Murine model of psoriatic arthritis induced by overexpression of IL-23; type: in vivo; conditions: mouse, IL-23 overexpression
Excerpt: Mouse IL-23 enhanced episomal expression vector (EEV) was obtained from System Biosciences (Cat #EEV651A-1). Mouse IL-23 Quantikine ELISA Kits were obtained from R&D Systems (Cat #M2300). ProSense® 680 and OsteoSense® 750EX were obtained from PerkinElmer (Cat #NEV10003 and NEV10053EX). RNAlater® was obtained from Ambion (Cat #AM7021). Imalgene® 1000 (Merial) and Rompun® 2% (Bayer) were obtained from Centravet (Cat #IMA004-6827812 and ROM001-6835444).
B10.RIII mice (male, 8-week old) were obtained from Charles River (Écully, France). Mice were kept on a 12 h light/dark cycle. Temperature was maintained at 22±2° C., food and water were provided ad libitum.
The design of the study is adapted from Sherlock J P. et al. (Sherlock et al. 2012).
On the first day (D1), the mice underwent a hydrodynamic injection of Ringer or IL-23 EEV in Ringer into the tail vein.
As of D5, twice a week, the mice were scored for clinical symptoms until the end of the experiment.
On D5, blood was collected by puncture in the submandibular vein to assess the serum IL-23 concentration.
On D9, mice from all groups received ProSense® 680 probe (0.8 nmol/10 g, i.p.). On D10, the mice were anesthetized. Granulocyte infiltration was then measured using in vivo molecular imaging (Bruker In-Vivo Xtreme imaging system).
On D11, randomization was performed according to ProSense® 680 molecular imaging and scoring.
As of D12, mice were dosed with test compound or with vehicle.
On D36, mice from all groups were sacrificed 2 h after last administration of compound.
Twice weekly, clinical signs of inflammation were scored: 0 for normal paw; 1 if swelling of one digit; 2 if swelling of two or more digits; 3 if swelling of the entire paw. The scores of all limbs were summed up to produce a global score.
There were 10 mice per group. The results are expressed as mean±SEM and statistical analysis is performed using one-way ANOVA followed by Dunnett's post-hoc test versus diseased vehicle group for scoring and imaging analysis, versus sham vehicle group for body weight.

Structure (SMILES) | maximal fold induction [1] | further results
COc1cc(-c2cnc3cc(C(C)(C)C#N)ccn23)cc(OC(F)F)c1C(=O)NC1CC1 [Cpd 19, 4-[7-(1-cyano-1-methyl-ethyl)imidazo[1,2-a]pyridin-3-yl]-N-cyclopropyl-2-(difluoromethoxy)-6-methoxy-benzamide] | < 1.5 | clinical score compared to diseased vehicle group (B10.RIII mice, IL-23 EEV; 10 mg/kg p.o. b.i.d.): statistically significant decrease
COc1cc(-c2cnc3cc(C4COC4)ccn23)cc(OC(F)F)c1C(=O)NC1CC1 [Cpd 174, N-cyclopropyl-2-(difluoromethoxy)-6-methoxy-4-[7-(oxetan-3-yl)imidazo[1,2-a]pyridin-3-yl]benzamide] | – | clinical score compared to diseased vehicle group (B10.RIII mice, IL-23 EEV; 30 mg/kg p.o. b.i.d.): statistically significant decrease
COc1cc(-c2cnn3cc(C(C)(C)C#N)ccc23)cc(OC(F)F)c1C(=O)NC1CC1 [Cpd 208, 4-[6-(1-cyano-1-methyl-ethyl)pyrazolo[1,5-a]pyridin-3-yl]-N-cyclopropyl-2-(difluoromethoxy)-6-methoxy-benzamide] | < 1.5 | –
COc1cc(-c2cnn3cc(C(C)(C)C#N)ccc23)cc(OC(F)F)c1C(=O)N[C@@H]1C[C@@H]1F [Cpd 219, 4-[6-(1-cyano-1-methyl-ethyl)pyrazolo[1,5-a]pyridin-3-yl]-2-(difluoromethoxy)-N-[(1R,2S)-2-fluorocyclopropyl]-6-methoxy-benzamide] | – | clinical score compared to diseased vehicle group (B10.RIII mice, IL-23 EEV; 3 mg/kg p.o. b.i.d.): statistically significant decrease
COc1cc(-c2cnn3cc(C(C)(C)O)ccc23)cc(OC(F)F)c1C(=O)N[C@@H]1C[C@@H]1F [Cpd 227, 2-(difluoromethoxy)-N-[(1R,2S)-2-fluorocyclopropyl]-4-[6-(1-hydroxy-1-methyl-ethyl)pyrazolo[1,5-a]pyridin-3-yl]-6-methoxy-benzamide] | 1.5 to 4.5 | –
COc1cc(-c2cnc3cc(C(C)(C)C#N)cnn23)cc(OC(F)F)c1C(=O)N[C@@H]1C[C@@H]1F [Cpd 228, 4-[7-(1-cyano-1-methyl-ethyl)imidazo[1,2-b]pyridazin-3-yl]-2-(difluoromethoxy)-N-[(1R,2S)-2-fluorocyclopropyl]-6-methoxy-benzamide] | < 1.5 | –
COc1cc(-c2cnn3cc(C(C)(C)C#N)cnc23)cc(OC(F)F)c1C(=O)N[C@@H]1C[C@@H]1F [Cpd 231, 4-[6-(1-cyano-1-methyl-ethyl)pyrazolo[1,5-a]pyrimidin-3-yl]-2-(difluoromethoxy)-N-[(1R,2S)-2-fluorocyclopropyl]-6-methoxy-benzamide] | 1.5 to 4.5 | –
COc1cc(-c2cnn3cc(C(C)(C)CO)ccc23)cc(OC(F)F)c1C(=O)N[C@@H]1C[C@@H]1F [Cpd 242, 2-(difluoromethoxy)-N-[(1R,2S)-2-fluorocyclopropyl]-4-[6-(2-hydroxy-1,1-dimethyl-ethyl)pyrazolo[1,5-a]pyridin-3-yl]-6-methoxy-benzamide] | < 1.5 | –
COc1cc(-c2cnn3cc(C4(C#N)CCOCC4)ccc23)cc(OC(F)F)c1C(=O)N[C@@H]1C[C@@H]1F [Cpd 243, 4-[6-(4-cyanotetrahydropyran-4-yl)pyrazolo[1,5-a]pyridin-3-yl]-2-(difluoromethoxy)-N-[(1R,2S)-2-fluorocyclopropyl]-6-methoxy-benzamide] | < 1.5 | –
COc1cc(-c2cnn3cc(C(C)(C)C#N)ccc23)cc(OC)c1C(=O)N[C@@H]1C[C@@H]1F [Cpd 245, 4-[6-(1-cyano-1-methyl-ethyl)pyrazolo[1,5-a]pyridin-3-yl]-N-[(1R,2S)-2-fluorocyclopropyl]-2,6-dimethoxy-benzamide] | < 1.5 | –
COc1cc(-c2cnn3cc(C4(C(N)=O)CCC4)ccc23)cc(OC(F)F)c1C(=O)N[C@@H]1C[C@@H]1F [Cpd 254, 4-[6-(1-carbamoylcyclobutyl)pyrazolo[1,5-a]pyridin-3-yl]-2-(difluoromethoxy)-N-[(1R,2S)-2-fluorocyclopropyl]-6-methoxy-benzamide] | < 1.5 | –
COc1cc(-c2cnn3cc(C(C)(C)N)ccc23)cc(OC(F)F)c1C(=O)N[C@@H]1C[C@@H]1F [Cpd 256, 4-[6-(1-amino-1-methyl-ethyl)pyrazolo[1,5-a]pyridin-3-yl]-2-(difluoromethoxy)-N-[(1R,2S)-2-fluorocyclopropyl]-6-methoxy-benzamide] | 1.5 to 4.5 | –
COc1cc(-c2cnn3cc(C4(N)CCC4)ccc23)cc(OC(F)F)c1C(=O)N[C@@H]1C[C@@H]1F [Cpd 261, 4-[6-(1-aminocyclobutyl)pyrazolo[1,5-a]pyridin-3-yl]-2-(difluoromethoxy)-N-[(1R,2S)-2-fluorocyclopropyl]-6-methoxy-benzamide] | < 1.5 | clinical score compared to diseased vehicle group (B10.RIII mice, IL-23 EEV; 50 mg/kg p.o. b.i.d.): statistically significant decrease
